A short description of series [1]: Drug accumulation in Candida albicans SC5314 by confocal laser scanning microscopic analysis. The class given is ADME.
Series [2] is described as follows: Toxicity in BALB/c mouse infected with clinical isolate fluconazole-resistant Candida albicans Gu5 assessed as animal survival at 6 mg/kg, ip administered on day 1 and day 3 post fungal infection measured after 4 days. Particulars: in vivo, 96 h, time 4 day. Format: organism-based.
Series [3] has as its system Candida albicans. Description: Antifungal activity against clinical isolate fluconazole-resistant Candida albicans Gu5 infected in BALB/c mouse assessed as fold reduction in kidney fungal burden at 6 mg/kg, ip administered on day 1 and day 3 post fungal infection measured after 7 days. The class given is functional. Particulars: time 7.0 day.
Series [4] relates to Candida albicans. Description: Antifungal activity against wild-type Candida albicans SC5314 assessed as inhibition of fungal growth measured after 24 hrs by CLSI based microtiter plate analysis. The class given is functional. As to conditions: for MIC80: Candida albicans.
The test system of series [5] is Candida albicans. Description: Antifungal activity against clinical isolate Candida albicans YEM13 overexpressing efflux pump MdrL assessed as inhibition of fungal growth measured after 24 hrs by CLSI based microtiter plate analysis. The class given is functional.
Series [6] concerns Candida albicans. Kind of series: Antifungal activity against clinical isolate Candida albicans YEM15 overexpressing efflux pump CdrL and Cdr2 assessed as inhibition of fungal growth measured after 24 hrs by CLSI based microtiter plate analysis. The class given is functional.
In series [7] the test system is Candida albicans. Description: Antifungal activity against clinical isolate Candida albicans SCUPC2R14MPG2A harbouring UPC2 mutation overexpressing […] Erg11 assessed as inhibition of fungal growth measured after 24 hrs by CLSI based microtiter plate analysis. Format: functional.
The test system of series [8] is Candida albicans. Description: Antifungal activity against clinical isolate Candida albicans SCMRRIR34MPG2A harbouring MRR1 mutation overexpressing efflux pump MdrL assessed as inhibition of fungal growth measured after 24 hrs by CLSI based microtiter plate analysis. The class given is functional.
Series [9] concerns Candida albicans. Kind of series: Antifungal activity against clinical isolate fluconazole-resistant Candida albicans DSY296 harbouring TAC1 mutation overexpressing efflux pump CdrL and Cdr2 assessed as inhibition of fungal growth measured after 24 hrs by CLSI based microtiter plate analysis. The class given is functional.
Series [10] concerns Candida albicans. Description: Antifungal activity against clinical isolate fluconazole-resistant Candida albicans G5 harbouring MRR1 mutation overexpressing MdrL assessed as inhibition of fungal growth measured after 24 hrs by CLSI based microtiter plate analysis. Format: functional.
Series [11] relates to Candida albicans. Description: Antifungal activity against clinical isolate fluconazole-resistant Candida albicans Gu5 harbouring TAC1 mutation overexpressing efflux pump CdrL and Cdr2 assessed as inhibition of fungal growth measured after 24 hrs by CLSI based microtiter plate analysis. The class given is functional.
Series [12] relates to Candida albicans. Description: Antifungal activity against clinical isolate fluconazole-resistant Candida albicans CA632 assessed as inhibition of fungal growth measured after 24 hrs by CLSI based microtiter plate analysis. Format: functional.
Series [13] relates to [Candida] auris. Description: Antifungal activity against clinical isolate fluconazole-resistant Candida auris CBS12774 assessed as inhibition of fungal growth measured after 24 hrs by CLSI based microtiter plate analysis. The class given is functional. Particulars: Candidozyma auris.
Series [14] has as its system [Candida] auris. Description: Antifungal activity against clinical isolate fluconazole-resistant Candida auris CBS12776 assessed as inhibition of fungal growth measured after 24 hrs by CLSI based microtiter plate analysis. As to conditions: Candidozyma auris. The class given is functional.
The subject of a further series is Nakaseomyces glabratus. Description: Antifungal activity against clinical isolate fluconazole-resistant Candida glabrata CG2 assessed as inhibition of fungal growth measured after 24 hrs by CLSI based microtiter plate analysis. Format: functional.
Another series deals with Cryptococcus neoformans. Description: Antifungal activity against clinical isolate fluconazole-resistant Cryptococcus neoformans H99 assessed as inhibition of fungal growth measured after 24 hrs by CLSI based microtiter plate analysis. The class given is functional.
The test system of the next series is Candida tropicalis. Description: Antifungal activity against clinical isolate fluconazole-resistant Candida tropicalis CT10 assessed as inhibition of fungal growth measured after 24 hrs by CLSI based microtiter plate analysis. The class given is functional.
Series [15] is described as follows: Drug accumulation in wild-type Candida albicans SC5314 at 50 microg/ml incubated for 3 hrs by HPLC analysis. The class given is ADME. Particulars: dose 50 µg/ml.
In series [16] the test system is Candida albicans. Kind of series: Induction of drug resistance in wild-type Candida albicans SC5314 assessed as change in MIC at 0.5 times of MIC measured after 30 passages by broth microdilution method. The class given is functional. For orientation: In broth dilution the organism is exposed to a series of concentrations in liquid medium.
Series [17] concerns Candida albicans. Description: microbe, parasite or virus in culture. Particulars: DSY654, time 24 hrs. Format: functional.
Description: Antifungal activity against efflux pump-deficient Candida albicans DSY654 assessed as inhibition of fungal growth measured after 24 hrs by CLSI based microtiter plate analysis
Series [18] relates to Candida albicans. Kind of series: Drug accumulation in Candida albicans SC5314 measured per 10^8 cells incubated for 3 hrs by HPLC analysis. Format: functional, organism-based.
Series [19] in a line: Drug accumulation in wild-type Candida albicans SC5314 at 20 microg/ml incubated for 2 hrs by flow cytometery analysis. The class given is ADME. Particulars: dose 20 µg/ml. On the technique in general: A flow cytometer gives signals particle by particle.
The subject of the next series is Cell membrane. Kind of series: Disruption of membrane integrity in Candida albicans SC5314 at 16 to 32 microg/ml incubated for 1 hr by Sytox green staining based fluorescence method. Format: subcellular. Particulars: dose 16-32 µg/ml.
Series [20] in a line: Induction of hemolysis in mouse RBC cells at 2 to 32 microg/ml incubated for 60 mins by absorbance based analysis. The class given is toxicity, cell-based, Erythrocyte. Particulars: red blood cells (erythrocytes), at 2 to 32 µg/mL, dose 2-32 µg/ml, read-out: Activity.
Series [21] has as its system Candida albicans. Description: Antifungal activity against Candida albicans assessed as inhibition of fungal growth measured after 24 hrs by CLSI based microtiter plate analysis. The class given is functional.
Series [22] can be described thus: Drug accumulation in Candida albicans TOM70-GFP-CAI4 at 20 microg/ml incubated for 30 mins by confocal laser scanning microscopic analysis. Format: ADME. As to conditions: 0.5 h, dose 20 µg/ml.
Series [23] is described as follows: Drug localization in mitochondria of Candida albicans SC5314 incubated for 30 mins by MitoTracker dye based confocal laser scanning microscopic analysis. Particulars: 0.5 h. Format: ADME.
The nature of series [24]: Drug accumulation in Candida albicans YEM13 expressing efflux pump MdrL at 20 microg/ml incubated for 2 hrs by flow cytometery analysis. Format: ADME. Particulars: dose 20 µg/ml.
Series [25] in a line: Drug accumulation in Candida albicans YEM15 expressing efflux pump CdrL and Cdr2 at 20 microg/ml incubated for 2 hrs by flow cytometery analysis. Format: ADME. Particulars: dose 20 µg/ml.
Series [26] is described as follows: Cytotoxicity against human HBE cells assessed as inhibition of cell growth measured after 4 hrs by MTT assay. The class given is toxicity, cell-based.
Series [27] is described as follows: Cytotoxicity against mouse L929 cells assessed as inhibition of cell growth measured after 4 hrs by MTT assay. Format: toxicity, cell-based.

The structures appear in SMILES notation. Converted amounts (≈) assume the structure as drawn. The source made the active and inactive calls. No cut-off for these calls is given here. Bounds are passed on as bounds.

With `CCN(CC)c1ccc2c(-c3ccccc3C(=O)O)c3ccc(=[N+](CC)CC)cc-3oc2c1.[Cl-]` [RHODAMINE], in series [1], the Drug uptake result is “Not Active”.

`C=C1C(=O)[C@@]2(C)CC[C@@H]3[C@@]1(CC[C@H]1[C@@]3(C)CCC[C@@]1(C)C(=O)OCCC[P+](c1ccccc1)(c1ccccc1)c1ccccc1)C2.[I-]`: in series [2], the Activity result is reported as “Toxic”. The result in the series with Candida albicans [3] was inactive.

On to `C[C@H]1[C@H](C)CC[C@]2(C(=O)OCCCOc3ccc(C(=N)N)cc3)CC[C@]3(C)C(=CC[C@@H]4[C@@]5(C)CC[C@H](O)C(C)(C)[C@@H]5CC[C@]43C)[C@H]12`, for which the MIC result in the series on Candida albicans [4] is “inactive”. Further, the MIC80 in the series on Candida albicans [4] (SC5314, 24 h, read-out: MIC80) was determined as 4 µg/mL (≈ 6.32 µM); with Candida albicans [5] it was 4 µg/mL (≈ 6.32 µM); with Candida albicans [6], 4 µg/mL (≈ 6.32 µM); with Candida albicans [7], 4 µg/mL (≈ 6.32 µM); in the series on Candida albicans [8], 4 µg/mL (≈ 6.32 µM); in the series on Candida albicans [9], 4 µg/mL (≈ 6.32 µM). The MIC80 is 4 µg/mL (≈ 6.32 µM) in the series with Candida albicans [10]; 4 µg/mL (≈ 6.32 µM) with Candida albicans [11]; 4 µg/mL (≈ 6.32 µM) in the series with Candida albicans [12]; 8 µg/mL (≈ 12.6 µM) in series [Candida] auris [13]; 4 µg/mL (≈ 6.32 µM) in series [Candida] auris [14]; 4 µg/mL (≈ 6.32 µM) with Nakaseomyces glabratus. Besides, the MIC80 with Cryptococcus neoformans and with Candida tropicalis was 4 µg/mL (≈ 6.32 µM) each time. For the same molecule, the Drug uptake result in series [15] is reported as “Active”. For the same molecule, the outcome in the series on Candida albicans [16] was Active.

`C=C1C[C@@]23CC[C@H]4[C@@](C)(CCC[C@@]4(C)C(=O)O)[C@@H]2CC[C@]1(O)C3` [STEVIOL] came in with an MIC in the series with Candida albicans [17] of 256 µg/mL (≈ 804 µM). The MIC80 is 256 µg/mL (≈ 804 µM) with Candida albicans [17] and more than 256 µg/mL with Candida albicans [4] (SC5314, read-out: MIC80). Moreover, the Drug uptake entry in the series with Candida albicans [18] was “inactive”.

In the case of `CCN(CC)c1ccc2c(-c3ccccc3C(=O)N3CCN(Cc4cn(CCCOc5ccc(C(=N)N)cc5)nn4)CC3)c3ccc(=[N+](CC)CC)cc-3oc2c1.[Cl-]`, the Drug uptake result in series [19], in [1], in [22], in series [23], in [24] and in series [25] was “Active” in each case. Besides, the outcome with Cell membrane was inactive. Moreover, the hemolysis at 1 h in series [20] was less than 2%. Moreover, the MIC in the series with Candida albicans [21] is more than 128 µg/mL.

Take `C=C1C[C@@]23CC[C@H]4[C@@](C)(CCC[C@@]4(C)C(=O)OCCCc4c5[n+](cc6c(OC)c(OC)ccc46)CCc4cc6c(cc4-5)OCO6)[C@@H]2CC[C@]1(O)C3.[I-]`: the MIC80 against Candida albicans [17] is 4 µg/mL; in the series with Candida albicans [4] (SC5314, read-out: MIC80), 8 µg/mL. Further, the figures for the IC50 at 4 h in [26] and in series [27] were 4.79 µg/mL and 1.32 µg/mL, respectively. For the same molecule, in series [20], the hemolysis at 1 h was less than 2%.

In the case of `N=C(N)c1ccc(OCCCOC(=O)c2ccccc2Nc2cccc(C(F)(F)F)c2)cc1`, the MIC80 in the series with Candida albicans [4] (SC5314, read-out: MIC80) was 8 µg/mL (≈ 17.5 µM). Moreover, in series [15], the Drug uptake entry was “Active”. In the series with Candida albicans [16], the result was Active.

As a reminder, the IC50 is the concentration at which inhibition is half-maximal.

(Values after ChEMBL document CHEMBL5365543, “Benzamidine Conjugation Converts Expelled Potential Active Agents into Antifungals against Drug-Resistant Fungi” (J Med Chem, 2023).)
